From PubChem BioAssay AID330 (DTP/NCI, 2004) come the findings set out here.

For this assay, the system named is P388 leukemia ip, CD2F1 mice, survival T/C. Kind of assay: NCI In Vivo Anticancer Drug Screen. Data for tumor model P388 Leukemia (intraperitoneal) in CD2F1 (CDF1) mice. The conditions noted are these: endpoint: median survival time, higher = longer survival. A digest of the protocol: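 Mice carrying the transplanted tumor received test compound or vehicle. Survival was recorded in each group, and the value is the treated-group measurement divided by that of the vehicle-treated control group.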

Setting [1] is: dose: 12.5 mg/kg/injection, schedule: Q01DX009 (ip), vehicle: saline with Tween-80.
[2] abbreviates: dose: 25.0 mg/kg/injection, schedule: Q01DX009 (ip), vehicle: saline with Tween-80.
Where [3] appears, read: dose: 50.0 mg/kg/injection, schedule: Q01DX005 (ip), vehicle: saline with Tween-80.
Setting [4] is: dose: 100.0 mg/kg/injection, schedule: Q01DX005 (ip), vehicle: saline with Tween-80.
Where [5] appears, read: dose: 200.0 mg/kg/injection, schedule: Q01DX005 (ip), vehicle: saline with Tween-80.
[6] abbreviates: dose: 50.0 mg/kg/injection, schedule: Q01DX009 (ip), vehicle: saline.
Setting [7] is: dose: 12.5 mg/kg/injection, schedule: Q01DX005 (ip), vehicle: Klucel (hydroxypropylcellulose) (HPC).
The mark [8] stands for this setting: dose: 25.0 mg/kg/injection, schedule: Q01DX005 (ip), vehicle: Klucel (hydroxypropylcellulose) (HPC).
The mark [9] stands for this setting: dose: 50.0 mg/kg/injection, schedule: Q01DX005 (ip), vehicle: Klucel (hydroxypropylcellulose) (HPC).
Where [10] appears, read: dose: 50.0 mg/kg/injection, schedule: Q01DX001 (ip), vehicle: Klucel (hydroxypropylcellulose) (HPC).
Where [11] appears, read: dose: 100.0 mg/kg/injection, schedule: Q01DX001 (ip), vehicle: Klucel (hydroxypropylcellulose) (HPC).
The mark [12] stands for this setting: dose: 60.0 mg/kg/injection, schedule: Q01DX005 (ip), vehicle: saline with Tween-80.
The mark [13] stands for this setting: dose: 120.0 mg/kg/injection, schedule: Q01DX005 (ip), vehicle: saline with Tween-80.
Setting [14] is: dose: 240.0 mg/kg/injection, schedule: Q01DX005 (ip), vehicle: saline with Tween-80.

Several values for one entry are separate records, joined by “and”; a condition that tells them apart may be missing. Equal values may be shown once. Toxic doses and inconclusive results are not listed.

As to `Nc1nc(N)c2cc(CCc3ccccc3)ccc2n1`, the T/C is 95 % of control (dose: 6.25 mg/kg/injection, schedule: Q01DX009 (ip), vehicle: saline with Tween-80); 109 % of control under setting [1]; 90 % of control under setting [2]; 104 % of control (dose: 50.0 mg/kg/injection, schedule: Q04DX003 (ip), vehicle: saline with Tween-80); 109 % of control (dose: 100.0 mg/kg/injection, schedule: Q04DX003 (ip), vehicle: saline with Tween-80).

For the compound `COc1ccc(NC(=O)/C=C\C(=O)O)cc1OC`, the T/C under setting [3] is 96 % of control, the T/C under setting [4] was 96 % of control and the T/C under setting [5] is 96 % of control.

For `CCN(CC)CC(=O)Nc1ccc2c(c1)C(=O)c1cc(NC(=O)CN(CC)CC)ccc1-2`, the T/C is 86 % of control (dose: 50.0 mg/kg/injection, schedule: Q01DX009 (ip), vehicle: saline with Tween-80); 94 % of control (dose: 100.0 mg/kg/injection, schedule: Q01DX009 (ip), vehicle: saline with Tween-80); 96 % of control (dose: 200.0 mg/kg/injection, schedule: Q01DX009 (ip), vehicle: saline with Tween-80).

On to `CCOC(=O)C1(N)CCCC1`, for which the T/C (dose: 6.25 mg/kg/injection, schedule: Q01DX009 (ip), vehicle: saline) is 105 % of control and 86 % of control; the T/C (dose: 12.5 mg/kg/injection, schedule: Q01DX009 (ip), vehicle: saline) was 100 % of control and 102 % of control; the T/C (dose: 25.0 mg/kg/injection, schedule: Q01DX009 (ip), vehicle: saline) was 100 % of control and 96 % of control; the T/C under setting [6] was 114 % of control and 96 % of control.

Consider `N#CCc1ccccc1-c1ccccc1`, for which the T/C is, setting by setting: under setting [7], 99 % of control; under setting [8], 94 % of control; under setting [9], 99 % of control.

Turning to `COc1ccc(OC(N)=O)c2ccccc12`, the T/C is, setting by setting: (dose: 25.0 mg/kg/injection, schedule: Q01DX001 (ip), vehicle: Klucel (hydroxypropylcellulose) (HPC)) 100 % of control; under setting [10], 100 % of control; under setting [11], 108 % of control.

Turning to `CC1S(=O)(=O)OCCCOS1(=O)=O`, the T/C runs as follows: under setting [7], 119 % of control; under setting [8], 154 % of control.

Turning to `CC(Cl)(C=O)c1ccccc1` (configuration not stated), the T/C by setting is: under setting [12], 100 % of control; under setting [13], 97 % of control.

On to `NC(=O)CCC(NC(=O)OCC1c2ccccc2-c2ccccc21)C(=O)O` (configuration not stated), for which the T/C is 104 % of control under setting [9]; 103 % of control (dose: 100.0 mg/kg/injection, schedule: Q01DX005 (ip), vehicle: Klucel (hydroxypropylcellulose) (HPC)); 104 % of control (dose: 200.0 mg/kg/injection, schedule: Q01DX005 (ip), vehicle: Klucel (hydroxypropylcellulose) (HPC)).

Take `CC(=O)Oc1cc2c(cc1C(Nc1ccccn1)c1ccc3c(c1)OCO3)OCO2` (configuration not stated): the T/C is 98 % of control under setting [12], 92 % of control under setting [13] and 97 % of control under setting [14].

Consider `Cc1nc(-c2ccc(Cl)cc2)c(Cc2c(O)ccc3ccccc23)c(=O)[nH]1`, for which the T/C was 102 % of control under setting [6]; 102 % of control (dose: 100.0 mg/kg/injection, schedule: Q01DX009 (ip), vehicle: saline); 102 % of control (dose: 200.0 mg/kg/injection, schedule: Q01DX009 (ip), vehicle: saline).

Take `CO/N=C(\C(O)C(C)O)C(OC)C1Cc2cc3cc(OC4CC(OC(C)=O)C(OC5CC(O)C(OC)C(C)O5)C(C)O4)cc(O)c3c(O)c2C(=O)C1OC1CC(OC2CC(OC3CC(C)(O)C(OC(=O)C(C)C)C(C)O3)C(O)C(C)O2)C(O)C(C)O1` (configuration not stated): the T/C is, setting by setting: (dose: 0.13 mg/kg/injection, schedule: Q01DX005 (ip), vehicle: water) 116 % of control; (dose: 0.25 mg/kg/injection, schedule: Q01DX005 (ip), vehicle: water) 116 % of control and 124 % of control; (dose: 1.0 mg/kg/injection, schedule: Q01DX005 (ip), vehicle: water) 160 % of control; (dose: 2.0 mg/kg/injection, schedule: Q01DX005 (ip), vehicle: water) 163 % of control.

For the compound `CSCSCC(CO)NC(=O)C(Cl)Cl` (configuration not stated), the T/C reads like this: (dose: 50.0 mg/kg/injection, schedule: Q01DX009 (ip), vehicle: water) 102 % of control; (dose: 200.0 mg/kg/injection, schedule: Q01DX009 (ip), vehicle: water) 106 % of control; (dose: 400.0 mg/kg/injection, schedule: Q01DX009 (ip), vehicle: water) 113 % of control.

With `COc1cccc(OC)c1OCc1ccc(OCc2ccccc2)cc1`, the T/C was 100 % of control under setting [3], 95 % of control under setting [4] and 105 % of control under setting [5].

Take `S=C1SSC(=S)C1=C1C=CN(Cc2ccccc2)C=C1`: the T/C is 102 % of control (dose: 25.0 mg/kg/injection, schedule: Q04DX002 (ip), vehicle: saline with Tween-80); 99 % of control (dose: 50.0 mg/kg/injection, schedule: Q04DX002 (ip), vehicle: saline with Tween-80); 100 % of control (dose: 100.0 mg/kg/injection, schedule: Q04DX002 (ip), vehicle: saline with Tween-80).

For `NC(Cc1cnc[nH]1)C(=O)NO` (configuration not stated), the T/C is 94 % of control (dose: 100.0 mg/kg/injection, schedule: Q01DX001 (ip), vehicle: saline); 102 % of control (dose: 200.0 mg/kg/injection, schedule: Q01DX001 (ip), vehicle: saline); 94 % of control (dose: 400.0 mg/kg/injection, schedule: Q01DX001 (ip), vehicle: saline).

As to `C(=N\N=C1c2ccccc2-c2ccccc21)/c1ccc2ccc3cccc4ccc1c2c34`, the T/C (dose: 12.5 mg/kg/injection, schedule: Q01DX005 (ip), vehicle: saline with Tween-80) is 93 % of control; the T/C (dose: 25.0 mg/kg/injection, schedule: Q01DX005 (ip), vehicle: saline with Tween-80) is 95 % of control; the T/C (dose: 30.0 mg/kg/injection, schedule: Q01DX005 (ip), vehicle: saline with Tween-80) was 88 % of control; the T/C under setting [3] was 91 % of control; the T/C under setting [12] is 86 % of control; the T/C under setting [13] was 88 % of control. Further, under setting [14], the T/C is 89 % of control.

On to `Oc1ccc2c(ccc3[nH]cnc32)c1`, for which the T/C (dose: 50.0 mg/kg/injection, schedule: Q01DX005 (ip), vehicle: saline) is 98 % of control; the T/C (dose: 100.0 mg/kg/injection, schedule: Q01DX005 (ip), vehicle: saline) is 101 % of control; the T/C (dose: 200.0 mg/kg/injection, schedule: Q01DX005 (ip), vehicle: saline) was 111 % of control.

In the case of `COc1ccccc1-n1cc[n+](C)c1/C=N/O`, the T/C runs as follows: under setting [1], 86 % of control; under setting [2], 90 % of control; under setting [6], 99 % of control.

`COC1CC(CC2CCC(C)C(C(C)C(=O)O)O2)OC2(OC(C)(C3CCC(C)(C4OC(C5OC(O)(CO)C(C)CC5C)CC4C)O3)CC2C)C1C` (configuration not stated): the T/C was 103 % of control (dose: 0.08 mg/kg/injection, schedule: Q01DX009 (ip), vehicle: Klucel (hydroxypropylcellulose) (HPC)); 109 % of control (dose: 0.15 mg/kg/injection, schedule: Q01DX009 (ip), vehicle: Klucel (hydroxypropylcellulose) (HPC)); 104 % of control and 105 % of control and 107 % of control (dose: 0.31 mg/kg/injection, schedule: Q01DX009 (ip), vehicle: Klucel (hydroxypropylcellulose) (HPC)); 102 % of control and 123 % of control and 91 % of control (dose: 2.5 mg/kg/injection, schedule: Q01DX009 (ip), vehicle: Klucel (hydroxypropylcellulose) (HPC)); 100 % of control (dose: 5.0 mg/kg/injection, schedule: Q01DX009 (ip), vehicle: Klucel (hydroxypropylcellulose) (HPC)).

On to `O=C(NC(=S)c1ccc(Br)cc1)NS(=O)(=O)c1ccccc1`, for which the T/C was 107 % of control (dose: 100.0 mg/kg/injection, schedule: Q01DX001 (ip), vehicle: saline with Tween-80); 102 % of control (dose: 200.0 mg/kg/injection, schedule: Q01DX001 (ip), vehicle: saline with Tween-80); 102 % of control (dose: 400.0 mg/kg/injection, schedule: Q01DX001 (ip), vehicle: saline with Tween-80).

As to `C/C(CC(C)C)=N\NC(=O)CNC(=O)c1ccccc1`, the T/C by setting is: under setting [12], 100 % of control; under setting [13], 106 % of control; under setting [14], 95 % of control.

For the compound `CN(/C=C/C=C/C=N/O)c1ccccc1`, the T/C was 104 % of control under setting [10]; 100 % of control under setting [11]; 99 % of control (dose: 200.0 mg/kg/injection, schedule: Q01DX001 (ip), vehicle: Klucel (hydroxypropylcellulose) (HPC)).
